# US20230190663A1, “PRUSSIAN BLUE NANOPARTICLES FUNCTIONALIZATION WITH LATENCY REVERSING AGENTS AND BROADLY NEUTRALIZING ANTIBODIES, AND APPLICATIONS THEREOF” (THE GEORGE WASHINGTON UNIVERSITY, priority 2020, published 2023)
# Tests used:
# J-LAT cells [1] = test: Latency reversal (GFP expression) in J-LAT cells, a model of latent HIV cells; format: cell-based
# Procedure: To determine the efficiency of free Poly I:C compared to PolyIC-PBNPs on HIV reactivation, increasing concentrations were added to J-LAT cells. Specifically, nanoparticles (PolyIC-PBNP) were generated at varying Poly I:C concentrations (1.75, 1, 1.5 and 0.75 mg/mL) and added to the cell culture medium to treat the J-LAT cells.
# J-LAT cells [2] = test: Viability / cytotoxicity of treated J-LAT cells; conditions: 1-15 μL, not transfected, FIG. 4B
# Procedure: Example 3. […] J-LAT cells harbor latent, transcriptionally competent HIV provirus that encodes green fluorescent protein (GFP) as an indicator of HIV-1 reactivation. […] Generally for effective latency reversal, free Poly I:C has to be delivered into the cytoplasm of the latently infected cells via transfection.
# Next, J-LAT cells were treated with increasing concentrations of Citrate-PBNP, PEI-PBNP or polyIC-PBNP (1 μL, 5 μL, 10 μL and 15 μL with [PBNP]=2 mg/mL and [polyIC]=0.5 mg/mL) where the PBNPs were added to the cell media (i.e., the PBNPs were not transfected into the cells).
# [3] = test system: peripheral blood mononuclear cells (PBMCs); test: Flow cytometry of immune cell ratios and activation in treated PBMCs; format: cell-based, human; conditions: compared to untreated PBMCs, FIG. 6G
# Procedure: Example 4. Primary peripheral blood mononuclear cells (PBMCs) were isolated from blood collected from healthy human donors. PBMCs were incubated with increasing concentrations of Poly-PBNP (50, 5 and 1 μg/mL of attached PolyIC) and same concentrations of Free-Poly I:C overnight. PMA (Phorbol 12-myristate 13-acetate), a known immune-stimulator, was used as positive control herein. Following this treatment, the number of viable cells was assessed.
# Treated PBMCs were subjected to flow cytometry to examine ratios of immune cells in response to Poly-PBNP and Free-Poly I:C treatments. […] There was no change in the amount of NK cells (CD56+ cells) for any of the treatment groups studied, compared to untreated PBMCs (FIG. 6F).
substance,measurement,setting,value
polyinosinic-polycytidylic acid [Free Poly I:C],Hill Slope (best-fit value),"J-LAT cells [1]; HIV reactivation in J-LAT cells, overnight, log(agonist) vs. normalized response, variable slope",1.904
same,latency reversal at increasing concentrations,"J-LAT cells [1]; J-LAT cells, 1, 5, 10 and 15 μL added to cell media, not transfected, FIG. 4A",reversed latency in a dose dependent manner
same,EC50 of HIV reactivation (GFP expression),"J-LAT cells [1]; J-LAT cells, overnight incubation, Table 1 prints none",6.944 µg/mL
same,cytotoxicity at increasing concentrations,J-LAT cells [2],caused cytotoxicity at higher concentrations
same,NK cells activation (CD56+CD69+),[3],no changes
